Numbered stars: 1 amine (or outer) side, 2 acyl side, 3 side chain; on linkers, the order of the positions; unused ones are H or OH. Square brackets hold non-standard residues; d marks the D form. Side chains are listed from the residue outwards. Peptide text beside a SMILES is read from it. * marks the point of attachment. Ala(1H-tetrazol-5-yl) = N[C@@H](Cc1nnn[nH]1)C(=O)O; C20 diacid = O=C(O)CCCCCCCCCCCCCCCCCCC(=O)*; αMePhe(2-F) = C[C@](N)(Cc1ccccc1F)C(=O)O; γGlu = O=C(O)[C@H](CCC(=O)[*:2])N[*:1]; αMeF = C[C@](N)(Cc1ccccc1)C(=O)O; αMeL = CC(C)C[C@](C)(N)C(=O)O; AEEA = NCCOCCOCC(=O)O; Aib = CC(C)(N)C(=O)O
Experiments:
human GIP receptor = biological target: T1, human GIP receptor (Homo sapiens, UniProt P48546); assay: [125I]-GIP binding (SPA), human GIP receptor; settings: read-out: hGIPR Ki, nM (SEM, n)
T1 construct: expressed in transfected cells; crude membranes
T1 sequence (P48546 22-466): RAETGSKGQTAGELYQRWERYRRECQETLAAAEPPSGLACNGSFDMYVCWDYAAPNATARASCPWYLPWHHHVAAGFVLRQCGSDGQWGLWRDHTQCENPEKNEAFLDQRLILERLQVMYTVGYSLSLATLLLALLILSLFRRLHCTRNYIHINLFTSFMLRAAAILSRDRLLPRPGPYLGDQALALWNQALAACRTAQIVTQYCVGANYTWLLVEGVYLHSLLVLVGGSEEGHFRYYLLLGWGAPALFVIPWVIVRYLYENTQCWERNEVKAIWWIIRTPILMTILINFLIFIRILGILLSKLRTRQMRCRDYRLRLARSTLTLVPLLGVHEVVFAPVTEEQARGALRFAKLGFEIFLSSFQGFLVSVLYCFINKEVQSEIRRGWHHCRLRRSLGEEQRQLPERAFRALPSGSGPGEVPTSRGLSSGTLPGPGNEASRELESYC

human GLP-1R = human GLP-1R (Homo sapiens, UniProt P43220); assay: [125I]-GLP-1 binding (SPA), human GLP-1 receptor; design: expressed in transfected cells; crude membranes; settings: read-out: hGLP1R Ki, (nM) (SEM, n)
How it was run: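 Frozen cell pellets are lysed on ice in hypotonic Tris buffer, pH 7.5, homogenized, and centrifuged to a membrane pellet resuspended at about 1 to 3 mg/mL. Binding is then measured in HEPES-based buffer at pH 7.4, and curves are fitted to give IC50 and Ki.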

[1] = biological target: human GLP-1 receptor (GLP-1R) (Homo sapiens, UniProt P43220); assay: cAMP pharmacological functional assay in presence of casein, hGLP-1R; type: cell-based; settings: HEK293 cells expressing hGLP-1R, 0.1% Casein, geometric mean; read-out: hGLP1R cAMP Rel EC50 nM (SEM, n)
[2] = biological target: T2, gastric inhibitory peptide receptor (GIPR) (Homo sapiens, UniProt P48546); assay: cAMP pharmacological functional assay in presence of casein, hGIPR; type: cell-based; settings: HEK293 cells expressing hGIPR, 0.1% Casein, geometric mean; read-out: hGIPR cAMP Rel EC50 nM (SEM, n)
T2 sequence (P48546 22-466): T1 sequence (P48546 22-466)

human Gcg receptor = biological target: T3, human Gcg receptor (Homo sapiens, UniProt P47871); assay: [125I]-Glucagon binding (SPA), human Gcg receptor; settings: read-out: hGLcgR Ki, nM (SEM, n)
T3 construct: expressed in transfected cells; crude membranes
How it was run: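 Cell pellets were lysed in hypotonic Tris buffer, pH 7.5, homogenized, and spun at low then high speed to give crude membranes. Ki was derived from the fitted IC50.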

human GLP-1 receptor (GLP-1R), sequence (P43220 24-463): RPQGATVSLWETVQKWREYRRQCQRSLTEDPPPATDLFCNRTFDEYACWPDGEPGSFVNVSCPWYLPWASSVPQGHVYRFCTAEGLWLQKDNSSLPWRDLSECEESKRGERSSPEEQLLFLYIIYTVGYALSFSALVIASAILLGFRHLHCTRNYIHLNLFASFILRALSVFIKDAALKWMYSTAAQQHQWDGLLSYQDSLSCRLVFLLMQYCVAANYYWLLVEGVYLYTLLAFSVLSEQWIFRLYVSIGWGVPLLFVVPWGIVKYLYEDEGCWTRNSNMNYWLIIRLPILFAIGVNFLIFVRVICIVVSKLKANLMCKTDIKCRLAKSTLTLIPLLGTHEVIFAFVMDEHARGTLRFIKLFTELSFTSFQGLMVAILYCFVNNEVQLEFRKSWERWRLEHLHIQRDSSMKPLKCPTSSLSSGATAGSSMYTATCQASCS
human GLP-1R, sequence (P43220 24-463): as above
T3 sequence (P47871 26-477): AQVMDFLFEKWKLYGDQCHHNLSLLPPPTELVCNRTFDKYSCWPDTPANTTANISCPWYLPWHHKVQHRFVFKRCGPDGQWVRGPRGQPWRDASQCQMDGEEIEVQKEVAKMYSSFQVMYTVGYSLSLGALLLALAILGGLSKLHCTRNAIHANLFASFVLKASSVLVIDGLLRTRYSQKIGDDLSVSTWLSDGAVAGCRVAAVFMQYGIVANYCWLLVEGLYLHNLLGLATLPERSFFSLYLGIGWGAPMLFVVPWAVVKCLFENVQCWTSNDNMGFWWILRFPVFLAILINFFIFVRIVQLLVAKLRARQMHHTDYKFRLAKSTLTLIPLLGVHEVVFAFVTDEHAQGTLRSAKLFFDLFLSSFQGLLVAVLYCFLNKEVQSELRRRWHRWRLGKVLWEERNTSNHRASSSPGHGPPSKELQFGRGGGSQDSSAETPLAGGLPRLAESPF

| SMILES | Ki (human GIP receptor) [nM] | Ki (human GLP-1R) [nM] | EC50 [1] [nM] | EC50 [2] [nM] | Ki (human Gcg receptor) [nM] |
| --- | --- | --- | --- | --- | --- |
| CC[C@H](C)[C@H](NC(=O)[C@H](CC(C)C)NC(=O)[C@H](Cc1ccc(O)cc1)NC(=O)[C@H](CCC(=O)O)NC(=O)[C@@H](NC(=O)[C@H](Cc1ccccc1)NC(=O)[C@H](C)NC(=O)C(C)(C)NC(=O)[C@H](CCC(N)=O)NC(=O)[C@H](C)NC(=O)[C@H](CCCCNC(=O)COCCOCCNC(=O)COCCOCCNC(=O)CC[C@H](NC(=O)CCCCCCCCCCCCCCCCCCC(=O)O)C(=O)O)NC(=O)[C@H](CCC(=O)O)NC(=O)[C@H](CC(=O)O)NC(=O)[C@H](CC(C)C)NC(=O)[C@](C)(CC(C)C)NC(=O)[C@@H](NC(=O)[C@H](CO)NC(=O)[C@H](Cc1ccc(O)cc1)NC(=O)[C@H](CC(=O)O)NC(=O)[C@H](CO)NC(=O)[C@@H](NC(=O)[C@](C)(Cc1ccccc1)NC(=O)[C@@H](NC(=O)CNC(=O)[C@H](Cc1nn[nH]n1)NC(=O)C(C)(C)NC(=O)[C@@H](N)Cc1ccc(O)cc1)[C@@H](C)O)[C@@H](C)O)[C@@H](C)CC)[C@@H](C)CC)C(=O)N[C@@H](CCC(=O)O)C(=O)NCC(=O)NCC(=O)N1CCC[C@H]1C(=O)N[C@@H](CO)C(=O)N[C@@H](CO)C(=O)NCC(=O)N[C@@H](C)C(=O)N1CCC[C@H]1C(=O)N1CCC[C@H]1C(=O)N1CCC[C@H]1C(=O)N[C@@H](CO)C(N)=O [Example 120] (H-Y[Aib][Ala(1H-tetrazol-5-yl)]GT[αMeF]TSDYSI[αMeL]LDEK([AEEA-AEEA-γGlu-C20 diacid])AQ[Aib]AFIEYLIEGGPSSGAPPPS-NH2; N-terminus assumed) | 0.11 | 11.7 | 0.201 | 0.122 | 93.6 |
| CC[C@H](C)[C@H](NC(=O)[C@H](CC(C)C)NC(=O)[C@H](Cc1ccc(O)cc1)NC(=O)[C@H](CCC(=O)O)NC(=O)[C@@H](NC(=O)[C@H](Cc1ccccc1)NC(=O)[C@H](C)NC(=O)C(C)(C)NC(=O)[C@H](CCC(N)=O)NC(=O)[C@H](C)NC(=O)[C@H](CCCCNC(=O)COCCOCCNC(=O)COCCOCCNC(=O)CC[C@H](NC(=O)CCCCCCCCCCCCCCCCCCC(=O)O)C(=O)O)NC(=O)[C@H](CCCCN)NC(=O)[C@H](CC(=O)O)NC(=O)[C@H](CC(C)C)NC(=O)[C@H](CC(C)C)NC(=O)[C@@H](NC(=O)[C@H](CO)NC(=O)[C@H](Cc1ccc(O)cc1)NC(=O)[C@H](CC(=O)O)NC(=O)[C@H](CO)NC(=O)[C@@H](NC(=O)[C@H](Cc1ccccc1)NC(=O)[C@@H](NC(=O)CNC(=O)[C@H](CCC(=O)O)NC(=O)C(C)(C)NC(=O)[C@@H](N)Cc1ccc(O)cc1)[C@@H](C)O)[C@@H](C)O)[C@@H](C)CC)[C@@H](C)CC)C(=O)N[C@@H](CCC(=O)O)C(=O)N[C@@H](C)C(=O)NCC(=O)N1CCC[C@H]1C(=O)N[C@@H](CO)C(=O)N[C@@H](CO)C(=O)NCC(=O)N[C@@H](C)C(=O)N1CCC[C@H]1C(=O)N1CCC[C@H]1C(=O)N1CCC[C@H]1C(=O)N[C@@H](CO)C(N)=O [Example 86] (H-Y[Aib]EGTFTSDYSILLDKK([AEEA-AEEA-γGlu-C20 diacid])AQ[Aib]AFIEYLIEAGPSSGAPPPS-NH2) | 0.0401 | 3.74 | 0.271 | 0.0452 | > 1060 |
| CC[C@H](C)[C@H](NC(=O)[C@H](CC(C)C)NC(=O)[C@H](Cc1ccc(O)cc1)NC(=O)[C@H](CCC(=O)O)NC(=O)[C@@H](NC(=O)[C@H](Cc1ccccc1)NC(=O)[C@H](CCC(=O)O)NC(=O)C(C)(C)NC(=O)[C@H](CCC(N)=O)NC(=O)[C@H](C)NC(=O)[C@H](CCCCNC(=O)COCCOCCNC(=O)COCCOCCNC(=O)CC[C@H](NC(=O)CCCCCCCCCCCCCCCCCCC(=O)O)C(=O)O)NC(=O)[C@H](CCC(=O)O)NC(=O)[C@H](CC(=O)O)NC(=O)[C@H](CC(C)C)NC(=O)[C@](C)(CC(C)C)NC(=O)[C@@H](NC(=O)[C@H](CO)NC(=O)[C@H](Cc1ccc(O)cc1)NC(=O)[C@H](CC(=O)O)NC(=O)[C@H](CO)NC(=O)[C@@H](NC(=O)[C@](C)(Cc1ccccc1F)NC(=O)[C@@H](NC(=O)CNC(=O)[C@H](CCC(=O)O)NC(=O)C(C)(C)NC(=O)[C@@H](N)Cc1ccc(O)cc1)[C@@H](C)O)[C@@H](C)O)[C@@H](C)CC)[C@@H](C)CC)C(=O)N[C@@H](CCC(=O)O)C(=O)NCC(=O)NCC(=O)N1CCC[C@H]1C(=O)N[C@@H](CO)C(=O)N[C@@H](CO)C(=O)NCC(=O)N[C@@H](C)C(=O)N1CCC[C@H]1C(=O)N1CCC[C@H]1C(=O)N1CCC[C@H]1C(=O)N[C@@H](CO)C(N)=O [Example 118] (H-Y[Aib]EGT[αMePhe(2-F)]TSDYSI[αMeL]LDEK([AEEA-AEEA-γGlu-C20 diacid])AQ[Aib]EFIEYLIEGGPSSGAPPPS-NH2) | 0.0859 | 6.1 | 0.0588 | 0.0538 | 53 |
| CC[C@H](C)[C@H](NC(=O)[C@H](CC(C)C)NC(=O)[C@H](Cc1ccc(O)cc1)NC(=O)[C@H](CCC(=O)O)NC(=O)[C@@H](NC(=O)[C@H](Cc1ccccc1)NC(=O)[C@H](C)NC(=O)C(C)(C)NC(=O)[C@H](CCC(N)=O)NC(=O)[C@H](C)NC(=O)[C@H](CCCCNC(=O)COCCOCCNC(=O)COCCOCCNC(=O)CC[C@H](NC(=O)CCCCCCCCCCCCCCCCCCC(=O)O)C(=O)O)NC(=O)[C@H](CCC(=O)O)NC(=O)[C@H](CC(=O)O)NC(=O)[C@H](CC(C)C)NC(=O)C(C)(C)NC(=O)[C@@H](NC(=O)[C@H](CO)NC(=O)[C@H](Cc1ccc(O)cc1)NC(=O)[C@H](CC(=O)O)NC(=O)[C@H](CO)NC(=O)[C@@H](NC(=O)[C@](C)(Cc1ccccc1F)NC(=O)[C@@H](NC(=O)CNC(=O)[C@H](CCC(=O)O)NC(=O)C(C)(C)NC(=O)[C@@H](N)Cc1ccc(O)cc1)[C@@H](C)O)[C@@H](C)O)[C@@H](C)CC)[C@@H](C)CC)C(=O)N[C@@H](CCC(=O)O)C(=O)NCC(=O)NCC(N)=O [Example 101] (H-Y[Aib]EGT[αMePhe(2-F)]TSDYSI[Aib]LDEK([AEEA-AEEA-γGlu-C20 diacid])AQ[Aib]AFIEYLIEGG-NH2) | 0.0953 | 8.1 | 0.0579 | 0.0704 | 117 |
| CC[C@@H](C)[C@@H](NC(=O)[C@H](CO)NC(=O)[C@H](Cc1ccc(O)cc1)NC(=O)[C@H](CC(=O)O)NC(=O)[C@H](CO)NC(=O)[C@@H](NC(=O)[C@H](Cc1ccccc1)NC(=O)[C@@H](NC(=O)CNC(=O)[C@H](CCC(=O)O)NC(=O)C(C)(C)NC(=O)[C@@H](N)Cc1ccc(O)cc1)[C@@H](C)O)[C@@H](C)O)C(=O)N[C@@H](CC(C)C)C(=O)N[C@@H](CC(C)C)C(=O)N[C@@H](CC(=O)O)C(=O)N[C@@H](CCCCN)C(=O)N[C@@H](CCCCNC(=O)COCCOCCNC(=O)COCCOCCNC(=O)CC[C@H](NC(=O)CCCCCCCCCCCCCCCCCCC(=O)O)C(=O)O)C(=O)N[C@@H](C)C(=O)N[C@@H](CCC(N)=O)C(=O)NC(C)(C)C(=O)N[C@@H](C)C(=O)N[C@@H](Cc1ccccc1)C(=O)N[C@H](C(=O)N[C@@H](CCC(=O)O)C(=O)N[C@@H](Cc1ccc(O)cc1)C(=O)N[C@@H](CC(C)C)C(=O)N[C@H](C(=O)N[C@@H](CCC(=O)O)C(=O)NCC(=O)NCC(=O)N1CCC[C@H]1C(=O)N[C@@H](CO)C(=O)N[C@@H](CO)C(=O)NCC(=O)N[C@@H](C)C(=O)N1CCC[C@H]1C(=O)N1CCC[C@H]1C(=O)N1CCC[C@H]1C(=O)N[C@@H](CO)C(N)=O)[C@@H](C)CC)[C@@H](C)CC [Example 82] | 14.9 | 6.82 | 26.1 | 24.3 | > 1060 |
